Results reported in patent publication US20140142352A1, “BUTANOL PURIFICATION” (BUTAMAX ADVANCED BIOFUELS LLC, priority 2012, published 2014).
Where two headings read alike, the source gives them in different places.

Experiments:
[1] = Liquid-liquid extraction of carboxylic acids from fermentation medium into oleyl alcohol at different pH; assay type: physicochemical
Protocol: (§1) The samples were subsequently incubated in a shaker at 30° C. and 300 rpm for 30 minutes. […] Finally, the aqueous broth samples were withdrawn from the upper section of the bottom phase for further analysis. […] The flow rate was 0.60 ml/min, the column temperature 40° C., the injection volume 10 ul and the run time was 58 minutes.

[2] = 30 min, pH 5.3
Protocol: The emulsions were rigorously vortexed and incubated at 30° C. and 300 rpm for 30 minutes. The emulsions were rigorously vortexed again, 1 mL sample was withdrawn and centrifuged in an Eppendorf table top centrifuge for 5 minutes at 16,000 rpm. Samples were taken from the top (extractant) as well as bottom (aqueous broth) phase and stored in the freezer at −20° C. for further analysis.
Aqueous broth samples were filtered through a 0.20 μm filter (Nanosept MF, Pall) and analyzed by HPLC. […] The flow rate was 0.08 ml/min, column temperature was 60° C., the injection volume was 10 ul and the sample run time was 38 minutes.
In subsequent calculations, the volume of water was corrected for the extracted volume, but no volume increase of the diluent was considered.
Partitioning of the deprotonated form of the acid was neglected, and only the protonated form was assumed to transition into the diluent oleyl alcohol.

[3] = system: anaerobic inoculum; test: Acetate Toxicity Assays (ATA); assay type: cell-based
Protocol: For the BMP tests, iBA provided the sole source of substrate over a range of conditions. Feed controls were prepared at organic loadings that spanned the lower and upper range of loadings used in the ATA and BMP tests, and gas production was monitored. Samples were prepared in triplicate with the seed concentration for all test bottles being 2000 mg/L. The feed control and ATA biodegradable synthetic feed composition contained 4000 mg/L acetate and 2000 mg/L propionate. The inorganic nutrient media used was similar to media presented in Table 5.1 of […], Anaerobic Biotechnology for Industrial […], Vanderbilt University, […], Nashville, p 115 (1996). The bottles were maintained at a temperature of 35° C.

[4] = Liquid-liquid extraction of isobutyric acid from fermentation medium into SOFA at different pH; assay type: physicochemical
Protocol: as §1

[5] = Liquid-liquid extraction of isobutyric acid from fermentation medium into COFA at different pH; assay type: physicochemical
Protocol: as §1

[6] = Liquid-liquid extraction of isobutyric acid from fermentation medium into oleic acid at different pH; assay type: physicochemical
Protocol: as §1

[7] = system: isobutanologen PNY 2242; test: SSF corn mash fermentation of isobutanologen with extractant layer; assay type: cell-based
Protocol: An isobutanologen was cultivated in 20 ml of corn mash in 125 ml shake flasks with a simultaneous saccharification and fermentation (SSF) process. […] The culture was incubated at 30° C. and 250 rpm for 24 hours in an Innova Laboratory Shaker (New Brunswick Scientific, Edison, N.J.). […] Resulting stage 2 cultures with total culture volume of 103 ml were incubated again at 250 rpm for 24 hours. […] Cultures were spun down at 9500 rpm for 20 minutes and supernatants were discarded. Cell pellet was re-suspended into 20 ml of production medium in the tubes.
The 20 ml cell cultures in the tubes were transferred into the shake flasks pre-filled with solvent. 50 μl of distillase added, and the shake flasks were closed with a close lid (for low oxygen/anaerobic cultivation). The flasks were subsequently incubated at 30° C. and 250 rpm for 48 hours. Each flask was sampled twice a day to measure glucose via YSI. After 48 hours, 2 ml aqueous and 1 ml of solvent phase were saved for exo-metabolite, starch and extractant analysis.
Extracellular compound analysis in supernatant was accomplished by HPLC. […] Flow rate was 0.60 ml/min, column temperature 40° C., injection volume 10 ul and run time 58 min.
For starch analysis, culture samples were centrifuged for 5 minutes at 14,000 rpm and solvent atop the aqueous layer was removed. Remaining aqueous fraction was re-suspended, thoroughly mixed and 0.30 g of the mixture transferred into previously weighted vials. […] Finally the samples were incubated for 5 minutes at 99° C. and 1100 rpm, transferred to previously weighted 10 mL volumetric flasks, filled at level with water, weights were recorded, 400 μl of the solution filtered through a centrifugal filter and subjected to HPLC analysis.
The cultures contained a second layer with either oleyl alcohol (OA) or an OA phase containing different portions of either trioctylamine (TOA) or aliquate for liquid-liquid extraction (LLX).

[8] = Reactive liquid-liquid extraction from aqueous compound solution into OA or OA with TBP, TOA or A336: aqueous concentrations; assay type: physicochemical; conditions: pH=5.3, 30° C.
Protocol: The emulsions were rigorously vortexed and incubated at 30° C. and 300 rpm for 30 minutes. The emulsions were rigorously vortexed again, 1 mL sample was withdrawn and centrifuged in an Eppendorf table top centrifuge for 5 minutes at 16,000 rpm. Samples were taken from the top (extractant) as well as bottom (aqueous broth) phase and stored in the freezer at −20° C. for further analysis. […] The flow rate was 0.08 ml/min, column temperature was 60° C., the injection volume was 10 ul and the sample run time was 38 minutes.

[9] = pH 3.14, ISPR ratio (Aq):(Oleyl Alcohol) 1:1
[10] = pH 3.14, ISPR ratio (Aq):(Oleyl Alcohol) 1:3
[11] = pH 4.94, ISPR ratio (Aq):(Oleyl Alcohol) 1:1
[12] = pH 4.94, ISPR ratio (Aq):(Oleyl Alcohol) 1:3
[13] = pH 7.24, ISPR ratio (Aq):(Oleyl Alcohol) 1:1
[14] = pH 7.24, ISPR ratio (Aq):(Oleyl Alcohol) 1:3
[15] = 2 mL extractant on 2 mL aqueous solution
[16] = 6 mL extractant on 2 mL aqueous solution
[17] = 10 mL extractant on 2 mL aqueous solution

CC(=O)O [Acetic Acid, acetic acid]
Conc. of acid in aqueous broth after extraction [1, 9]: 140040 µM
Conc. of acid in aqueous broth after extraction [1, 10]: 106430 µM
Conc. of acid in aqueous broth after extraction [1, 11]: 162730 µM
Conc. of acid in aqueous broth after extraction [1, 12]: 159230 µM
Conc. of acid in aqueous broth after extraction [1, 13]: 169150 µM
Conc. of acid in aqueous broth after extraction [1, 14]: 173630 µM

CC(C)(O)CC(=O)O [HMB]
Conc. of acid in aqueous broth after extraction [1, 9]: 54070 µM
Conc. of acid in aqueous broth after extraction [1, 10]: 40280 µM
Conc. of acid in aqueous broth after extraction [1, 11]: 72000 µM
Conc. of acid in aqueous broth after extraction [1, 12]: 71860 µM
Conc. of acid in aqueous broth after extraction [1, 13]: 72460 µM
Conc. of acid in aqueous broth after extraction [1, 14]: 73310 µM

CC(C)CO [Isobutanol, 2-methyl-1-propanol]
Partition coefficients (P) [HA] org/aq [2]: 2.97 mol/mol

CC(C)C(=O)O [Isobutyric Acid, isobutyric acid]
Cumulative Gas Production (% Theoretical Max) ([3]; ATA-syn 550 ppm iBA, Day 2): 18 % Theoretical Max
Cumulative Gas Production (% Theoretical Max) ([3]; ATA-syn 550 ppm iBA, Day 4): 45 % Theoretical Max
Cumulative Gas Production (% Theoretical Max) ([3]; ATA-syn 550 ppm iBA, Day 6): 65 % Theoretical Max
Cumulative Gas Production (% Theoretical Max) ([3]; ATA-syn 550 ppm iBA, Day 10): 82 % Theoretical Max
Cumulative Gas Production (% Theoretical Max) ([3]; ATA-syn 550 ppm iBA, Day 12): 85 % Theoretical Max
Cumulative Gas Production (% Theoretical Max) ([3]; ATA-syn 550 ppm iBA, Day 15): 86 % Theoretical Max
Cumulative Gas Production (% Theoretical Max) ([3]; ATA-syn 825 ppm iBA, Day 2): 14 % Theoretical Max
Cumulative Gas Production (% Theoretical Max) ([3]; ATA-syn 825 ppm iBA, Day 4): 36 % Theoretical Max
Cumulative Gas Production (% Theoretical Max) ([3]; ATA-syn 825 ppm iBA, Day 6): 56 % Theoretical Max
Cumulative Gas Production (% Theoretical Max) ([3]; ATA-syn 825 ppm iBA, Day 10): 82 % Theoretical Max
Cumulative Gas Production (% Theoretical Max) ([3]; ATA-syn 825 ppm iBA, Day 12): 83 % Theoretical Max
Cumulative Gas Production (% Theoretical Max) ([3]; ATA-syn 825 ppm iBA, Day 15): 84 % Theoretical Max
Cumulative Gas Production (% Theoretical Max) ([3]; ATA-syn 1100 ppm iBA, Day 2): 14 % Theoretical Max
Cumulative Gas Production (% Theoretical Max) ([3]; ATA-syn 1100 ppm iBA, Day 4): 36 % Theoretical Max
Cumulative Gas Production (% Theoretical Max) ([3]; ATA-syn 1100 ppm iBA, Day 6): 51 % Theoretical Max
Cumulative Gas Production (% Theoretical Max) ([3]; ATA-syn 1100 ppm iBA, Day 10): 82 % Theoretical Max
Cumulative Gas Production (% Theoretical Max) ([3]; ATA-syn 1100 ppm iBA, Day 12): 85 % Theoretical Max
Cumulative Gas Production (% Theoretical Max) ([3]; ATA-syn 1100 ppm iBA, Day 15): 85 % Theoretical Max
inhibition of gas generation ([3]; iBA concentrations of up to 1100 parts per million (ppm)): did not inhibit gas generation
Conc. Isobutyric Acid (%) ([4]; pH 3.93, ISPR ratio (Aq):(SOFA) 1:1): 31.37%
Conc. Isobutyric Acid (%) ([4]; pH 3.93, ISPR ratio (Aq):(SOFA) 1:3): 12.68%
Conc. Isobutyric Acid (%) ([4]; pH 4.92, ISPR ratio (Aq):(SOFA) 1:1): 53.76%
Conc. Isobutyric Acid (%) ([4]; pH 4.92, ISPR ratio (Aq):(SOFA) 1:3): 27.63%
Conc. Isobutyric Acid (%) ([4]; pH 6.64, ISPR ratio (Aq):(SOFA) 1:1): 74.48%
Conc. Isobutyric Acid (%) ([4]; pH 6.64, ISPR ratio (Aq):(SOFA) 1:3): 33.23%
Conc. Isobutyric Acid (%) ([5]; pH 4.08, ISPR ratio (Aq):(COFA) 1:1): 29.81%
Conc. Isobutyric Acid (%) ([5]; pH 4.08, ISPR ratio (Aq):(COFA) 1:3): 12.81%
Conc. Isobutyric Acid (%) ([5]; pH 4.82, ISPR ratio (Aq):(COFA) 1:1): 52.89%
Conc. Isobutyric Acid (%) ([5]; pH 4.82, ISPR ratio (Aq):(COFA) 1:3): 30.00%
Conc. Isobutyric Acid (%) ([5]; pH 6.95, ISPR ratio (Aq):(COFA) 1:1): 70.40%
Conc. Isobutyric Acid (%) ([5]; pH 6.95, ISPR ratio (Aq):(COFA) 1:3): 31.27%
Partition coefficients (P) [HA] org/aq [2]: 1.91 mol/mol
Conc. Isobutyric Acid (%) ([6]; pH 4.08, ISPR ratio (Aq):(Oleic Acid) 1:1): 29.60%
Conc. Isobutyric Acid (%) ([6]; pH 4.08, ISPR ratio (Aq):(Oleic Acid) 1:3): 13.00%
Conc. Isobutyric Acid (%) ([6]; pH 4.82, ISPR ratio (Aq):(Oleic Acid) 1:1): 49.16%
Conc. Isobutyric Acid (%) ([6]; pH 4.82, ISPR ratio (Aq):(Oleic Acid) 1:3): 23.36%
Conc. Isobutyric Acid (%) ([6]; pH 6.95, ISPR ratio (Aq):(Oleic Acid) 1:1): 67.35%
Conc. Isobutyric Acid (%) ([6]; pH 6.95, ISPR ratio (Aq):(Oleic Acid) 1:3): 28.60%
KE (+A336, oleyl alcohol with 100 mM of Aliquat 336): 0.036
KE (+TBA, oleyl alcohol with 100 mM of tributyl phosphate): 0.000
KE (+TOA, oleyl alcohol with 100 mM of trioctyl amine): 0.010
Conc. of acid in aqueous broth after extraction [1, 9]: 19770 µM
Conc. of acid in aqueous broth after extraction [1, 10]: 8100 µM
Conc. of acid in aqueous broth after extraction [1, 11]: 46140 µM
Conc. of acid in aqueous broth after extraction [1, 12]: 30830 µM
Conc. of acid in aqueous broth after extraction [1, 13]: 93360 µM
Conc. of acid in aqueous broth after extraction [1, 14]: 91950 µM

CCCCCCCC/C=C\CCCCCCCCO [OA, oleyl alcohol]
performance of the butanologen (glucose consumption, isobutanol production, FIG. 4) ([7]; 48 hours, extractant as LLX layer): performed best
C (g/c) [g/L], free glucose during the SSF ([7]; EPT 3.67 h): 37.2 g/L
C (g/c) [g/L], free glucose during the SSF ([7]; EPT 21.00 h): 34.60 g/L
C (g/c) [g/L], free glucose during the SSF ([7]; EPT 28.00 h): 29.7 g/L
C (g/c) [g/L], free glucose during the SSF ([7]; EPT 48.00 h): 1.20 g/L
Acetic Acid (mM), aqueous concentration after addition of extractant [8, 15]: 13.13 mM
Formic Acid (mM), aqueous concentration after addition of extractant [8, 15]: 11.96 mM
Isobutanol (mM), aqueous concentration after addition of extractant [8, 15]: 3.01 mM
Isobutyric Acid (mM), aqueous concentration after addition of extractant [8, 15]: 8.01 mM
MES (AU), aqueous concentration after addition of extractant [8, 15]: 6954908 AU
Phosphate (AU), aqueous concentration after addition of extractant [8, 15]: 656297 AU
Acetic Acid (mM), aqueous concentration after addition of extractant [8, 16]: 12.98 mM
Formic Acid (mM), aqueous concentration after addition of extractant [8, 16]: 12.68 mM
Isobutanol (mM), aqueous concentration after addition of extractant [8, 16]: 1.19 mM
Isobutyric Acid (mM), aqueous concentration after addition of extractant [8, 16]: 4.95 mM
MES (AU), aqueous concentration after addition of extractant [8, 16]: 7135183 AU
Phosphate (AU), aqueous concentration after addition of extractant [8, 16]: 673645 AU
Acetic Acid (mM), aqueous concentration after addition of extractant [8, 17]: 12.73 mM
Formic Acid (mM), aqueous concentration after addition of extractant [8, 17]: 13.05 mM
Isobutanol (mM), aqueous concentration after addition of extractant [8, 17]: 0.77 mM
Isobutyric Acid (mM), aqueous concentration after addition of extractant [8, 17]: 3.57 mM
MES (AU), aqueous concentration after addition of extractant [8, 17]: 7168671 AU
Phosphate (AU), aqueous concentration after addition of extractant [8, 17]: 676874 AU

CCCCCCCCN(CCCCCCCC)CCCCCCCC [TOA, tru-n-octylamine]
efficiency of extraction of isobutyric acid (100 mM extractant in oleyl alcohol): less efficient
